# Measured values taken from PMC7956430, “Cytotoxicity and Apoptosis Effects of Curcumin Analogue (2E,6E)-2,6-Bis(2,3-Dimethoxybenzylidine) Cyclohexanone (DMCH) on Human Colon Cancer Cells HT29 and SW620 In Vitro” (Molecules, 2021).
# Like-named read-outs stand apart in the source and are kept apart here.
# Tests used:
# HT29 [1] = test: MTT cell viability assay; type: cell-based; conditions: Homo sapiens, HT-29
# Description: (§1) Both SW620 and HT29 cells were grown in an incubator at 37 °C under 5% CO2 condition with their respective media. After the cells were harvested, they were counted and seeded at 1 × 10^5 cells per well in a 96-well plate overnight before being treated with DMCH. The following day, cells were treated with various concentrations of DMCH. […] Following incubation for the designated time period, 20 μL of (5 mg/mL) MTT 3-[4, 5-dimethylthiazol-2-yl]-2, 5 diphenyltetrazolium bromide (Merck, Kenilworth, NJ, USA) reagent was added into each well and then cells were incubated again for another 3 to 4 h. Next, the solution was removed and 100 μL of dimethyl sulfoxide (DMSO) was added into the wells. Afterward, the plate was read at 575 nm using a microtiter plate reader (μQuant, Bio-Tek Instrument, Winooski, VT, USA). The results were analysed as the percentage proliferation of the cells regarding the concentration of the sample treated. The following formula was used to determine the percentage of viable cells:
# (§2) Percentage of viability (%) = (Absorbance of sample at 570 nm)/(Absorbance of control at 570 nm) × 100.
# SW620 [2] = test: MTT cell viability assay; type: cell-based; conditions: Homo sapiens, SW-620
# Description: as §1, §2
# Splenocyctes = test: MTT cell viability assay on normal cells; type: cell-based; conditions: splenocytes
# HT29 [3] = test: Annexin V/FITC assay (flow cytometry); type: cell-based, human; conditions: HT29, 72 h, DMCH at IC50
# Description: (§3) The apoptosis effect on HT29 and SW620 cells was studied using an Annexin V fluorescence kit (BD Pharmingen, San Diego, CA, USA) according to the manufacturer’s instructions without any modifications. Briefly, cells were seeded for 24 h at a density of 2.0 × 10^5 cells per well in a 6-well plate. Then, the seeded cells were treated with the designated concentrations for 48 h and 72 h. After the 48 h (or 72 h) of treatment, the treated cells were harvested and collected as a pellet. Next, the pellet was resuspended in 400 μL of binding buffer and stained with 5 μL of FITC-Annexin-V and 5 μL of PI provided in the kit. Afterward, the cells were analysed using a Novocyctes flow cytometer (ACEA Biosciences Inc., San Diego, CA, USA).
# SW620 [4] = test: Annexin V/FITC assay (flow cytometry); type: cell-based, human; conditions: SW620, 72 h, DMCH at IC50
# Description: as §3
# HT29 [5] = test: Cell cycle analysis by flow cytometry; type: cell-based, human; conditions: HT29, 72 h
# Description: (§4) The effect of the DMCH sample on the cell cycle of HT29 and SW620 cells was investigated using flow cytometry cell cycle analysis. Cell cycle assay was carried out using the CycleTEST Plus DNA Reagent Kit according to the instructions (BD Pharmingen, San Diego, CA, USA). The cells were seeded at a density of 2.0 × 10^5 cells/well overnight. Then, cells were treated with different dosages of DMCH based on the concentration results of the MTT assay for 48 h and 72 h. After the treatment, cells were collected, and the pellet was resuspended in 200 μL of trypsin (solution A) and RNAse (solution B) for 10 min each followed by 250 μL of propidium iodide (solution C) for 15 min. After that, flow cytometric analysis was performed within 3 h using a Novocytes flow cytometer (ACEA Biosciences Inc., San Diego, CA, USA).
# SW620 [6] = test: Cell cycle analysis by flow cytometry; type: cell-based, human
# Description: as §4
# [7] = test system: apoptosis-related proteins in HT29; test: Human apoptosis proteome profiler; type: cell-based; conditions: HT29, DMCH (IC50) for 48 h
# Description: (§5) Colon cancer cell lines SW620 and HT29 that had been treated with DMCH for 48 h were investigated for the expression profiles of apoptosis-related proteins. This was conducted using the Human Apoptosis Array Kit (R&D Systems, Minneapolis, MN, USA). Firstly, the proteins from both cells were extracted using 600 µL of RIPA buffer (50 mM Tris-HCl, 150 mM NaCl, 1.0% TritonX-100, 0.5% sodium deoxycholate, 0.1% SDS) supplemented with 10 mg of pre-made protease inhibitor cocktails (Roche, Mississauga, ON, Canada). After that, the proteins were quantified using the Bradford assay (Sigma, St. Louis, MO, USA). Then, membranes were blocked by blocking buffer for an hour. At the same time, the proteins were prepared with the addition of 1 mL Lysis Buffer 17 to the protein lysate. The prepared protein was loaded onto the membrane and was incubated at 4 °C overnight. The following day, the membranes were washed three times with 20 mL of wash buffer provided in the kit. Next, the membrane was transferred into a 4-well multi-dish that contains the reconstituted detection antibody cocktails, and it was incubated for an hour on a shaker. Then, the membrane was again washed with a washing buffer three times. Two millilitres of Streptavidin-HRP was added onto the membrane followed by incubation for 30 min. Then, the membrane was washed three times. Afterward, the membrane was loaded with 1.0 mL of Chemi Reagent Mix and then the membrane was scanned using ChemiDoc XRS (Bio-Rad, Hercules, CA, USA).
# [8] = test system: apoptosis-related proteins in SW620; test: Human apoptosis proteome profiler; type: cell-based; conditions: SW620, DMCH (IC50) for 48 h
# Description: as §5
# HT29 [9] = test: Acridine orange/propidium iodide (AO/PI) double staining assay; type: cell-based, human; conditions: HT29, DMCH at IC50, as incubation time increased (48 h, 72 h), p < 0.05
# Description: (§6) Acridine orange/propidium iodide (AO/PI) double staining assay was performed on colon cancer cell lines to determine the mode of cell death microscopically. HT29 and SW620 cell lines were seeded in a 6-well plate at a density of 2 × 10^5 cells/well. Then, cells were treated with DMCH sample according to 48 h and 72 h concentrations. The treatment-free culture was used as a negative control, and cells were detached and collected at the end of each incubation time. Then, cells were washed with PBS and incubated with a 1:1 ratio of acridine orange (10 µg/mL) and propidium iodide (10 µg/mL). An amount of 10 µL of incubated suspension cells was placed on a slide and viewed immediately under a fluorescent microscope (Nikon FC-35DX, Nikon, Tokyo, Japan).
# SW620 [10] = test: as above; type: cell-based, human; conditions: SW620, DMCH at IC50, as incubation time increased (48 h, 72 h), p < 0.05
# Description: as §6
# [11] = Splenocyte, 24 h, read-out: IC50
# [12] = Splenocyte, 48 h, read-out: IC50
# [13] = Splenocyte, 72 h, read-out: IC50
smiles,measurement,setting,value
"COc1cccc(/C=C2\CCC/C(=C\c3cccc(OC)c3OC)C2=O)c1OC [DMCH, (2E,6E)-2,6-bis(2,3-dimethoxybenzylidene) cyclohexanone]",IC50,"HT29 [1]; HT29, 24 h, read-out: IC50",> 30 µM
same,IC50,"HT29 [1]; HT29, 48 h, read-out: IC50",9.8 ± 0.553 µM
same,IC50,"HT29 [1]; HT29, 72 h, read-out: IC50",8.2 ± 0.761 µM
same,IC50,"HT29 [1]; HT29, as printed in abstract, time not stated, read-out: inhibitory concentration (IC50)",9.8 ± 0.55 µg/mL
same,IC50,"SW620 [2]; SW620, 24 h, read-out: IC50",> 30 µM
same,IC50,"SW620 [2]; SW620, 48 h, read-out: IC50",7.5 ± 1.19 µM
same,IC50,"SW620 [2]; SW620, 72 h, read-out: IC50",5 ± 0.157 µM
same,IC50,"SW620 [2]; SW620, as printed in abstract, time not stated, read-out: inhibitory concentration (IC50)",7.5 ± 1.19 µg/mL
same,IC50,Splenocyctes; [11],> 30 µM
same,IC50,Splenocyctes; [12],> 30 µM
same,IC50,Splenocyctes; [13],> 30 µM
same,IC50,Splenocyctes; 24 h,no IC50 values observed
same,IC50,Splenocyctes; 48 h,no IC50 values observed
same,IC50,Splenocyctes; 72 h,no IC50 values observed
same,early and late apoptotic/necrotic cells,HT29 [3],8.83 ± 0.42%
same,early and late apoptotic/necrotic cells,SW620 [4],15.70 ± 1.03%
same,cells in sub-G0/G1 phase,HT29 [5],10.96± 0.94%
same,cells in sub-G0/G1 phase,"SW620 [6]; SW620, 48 h",0.15 ± 0.05%
same,cells in sub-G0/G1 phase,"SW620 [6]; SW620, 72 h",73.24 ± 1.65%
same,Bad Regulation,[7],Up
same,Bax Regulation,[7],Up
same,Bcl x Regulation,[7],Down
same,Cytochrome c Regulation,[7],Up
same,Livin Regulation,[7],Down
same,Pro caspase 3 Regulation,[7],Up
same,SMAC/Diablo Regulation,[7],Up
same,Bad Regulation,[8],Up
same,Bax Regulation,[8],Up
same,Bcl x Regulation,[8],Up
same,Cytochrome c Regulation,[8],Down
same,Livin Regulation,[8],Down
same,Pro caspase 3 Regulation,[8],Down
same,SMAC/Diablo Regulation,[8],Down
same,Cytochrome c Relative Intensity (Fold Change),[8]; vs control,−0.900 ± 0.006
same,Livin Relative Intensity (Fold Change),[8]; vs control,−0.900 ± 0.040
same,SMAC/Diablo Relative Intensity (Fold Change),[8]; vs control,−0.900 ± 0.070
same,proportion of cells that exhibited early apoptosis and late apoptosis,HT29 [9],significantly higher
same,proportion of cells that exhibited early apoptosis and late apoptosis,SW620 [10],significantly higher
COc1cc(/C=C/C(=O)CC(=O)/C=C/c2ccc(O)c(OC)c2)ccc1O [curcumin],IC50,"HT29 [1]; HT29, 24 h, read-out: IC50",> 30 µM
same,IC50,"HT29 [1]; HT29, 48 h, read-out: IC50",26.7 ± 1.53 µM
same,IC50,"HT29 [1]; HT29, 72 h, read-out: IC50",20.7 ± 1.16 µM
same,IC50,"SW620 [2]; SW620, 24 h, read-out: IC50",> 30 µM
same,IC50,"SW620 [2]; SW620, 48 h, read-out: IC50",18.6 ± 0.321 µM
same,IC50,"SW620 [2]; SW620, 72 h, read-out: IC50",15.7 ± 1.52 µM
same,IC50,Splenocyctes; [11],> 30 µM
same,IC50,Splenocyctes; [12],> 30 µM
same,IC50,Splenocyctes; [13],> 30 µM
